Counter-ions that a name gives are not always drawn. Like-named read-outs stand apart in the source and are kept apart here.
Experiments:
[1] = system: IL-1β cytokine output from THP-1s; assay: THP-1 AlphaLISA IL-1β cytokine inhibition assay; type: cell-based; details: for IC50: Homo sapiens, THP-1, differentiated THP-1 cells, LPS then nigericin; for IL-1β lowering, result in words: THP-1 IL-1β assay
Description: Measuring Inhibitory Effects on IL-1β Cytokine Output from THP-1s
The cytokine inhibition profiles of compounds of formula (I) were determined in a differentiated THP-1 cell assay. All assays were performed in RPMI-1640 growth medium (Gibco), supplemented with 10% fetal bovine serum (FBS; Gibco), 1% penicillin-streptomycin and 1% sodium pyruvate unless specified otherwise. The IL-1β cytokine inhibition assay was run in a background of differentiated THP-1 cells as described below. All reagents described were from Sigma-Aldrich unless specified otherwise. Compounds were prepared as 10 mM DMSO stocks.
THP-1 cells were expanded as a suspension up to 80% confluence in appropriate growth medium. Cells were harvested, suspended, and treated with an appropriate concentration of phorbol 12-myristate 13-acetate (PMA) over a 72 hr period (37° C./5% CO2).
Following 72 hrs of THP-1 cell incubation, cellular medium was removed and replaced with fresh growth media containing 1% of FBS. Working concentrations of compounds were prepared separately in 10% FBS treated growth medium and pre-incubated with the cells for 30 minutes (37° C./5% CO2). Following the 30 minute compound pre-incubation, THP-1s were treated with an appropriate concentration of LPS and the cells were subsequently incubated for a 24 hr period (37° C./5% CO2). An appropriate final concentration of Nigericin was then dispensed into the THP-1 plates and incubated for 1 hour (37° C./5% CO2) before THP-1 supernatants were harvested and collected in separate polypropylene 96-well holding plates.
Reagents from an IL-1β and IL-6 commercial kit (Perkin Elmer) were prepared and run according to the manufacturer's instructions. Subsequently, fluorescence signal detection in a microplate reader was measured (EnVision® Multilabel Reader, Perkin Elmer).
Percentage inhibition was calculated per cytokine by normalising the sample data to the high and low controls used within each plate (+/− LPS respectively).

[2] = system: NRF2 (nuclear factor erythroid 2-related factor 2); assay: NRF2 +/-GSH activation assay (DiscoverX PathHunter NRF2 translocation kit, U2OS cells); type: cell-based; details: for NRF2 activation +GSH Emax / NRF2 activation −GSH Emax: normalised to DMF high control
Description: Measuring Compound Activation Effects on the Anti-Inflammatory Transcription Factor NRF2 in DiscoverX PathHunter NRF2 Translocation Kit
Potency and efficacy of compounds of formula (I) against the target of interest to activate NRF2 (nuclear factor erythroid 2-related factor 2) were determined using the PathHunter NRF2 translocation kit (DiscoverX). The NRF2 translocation assay was run using an engineered recombinant cell line, utilising enzyme fragment complementation to determine activation of the Keap1-NRF2 protein complex and subsequent translocation of NRF2 into the nucleus. Enzyme activity was quantified using a chemiluminescent substrate consumed following the formation of a functional enzyme upon PK-tagged NRF2 translocation into the nucleus.
The assay was run under both +/−GSH (glutathione) conditions to determine the sensitivity of the compounds' NRF2-activating abilities to attenuation by GSH.
Additionally, a defined concentration of DMF was used as the ‘High’ control to normalise test compound activation responses to.
U2OS PathHunter eXpress cells were thawed from frozen prior to plating. Following plating, U2OS cells were incubated for 24 hrs (37° C./5% CO2) in commercial kit provided cell medium.
Following 24 hrs of U2OS incubation, cells were directly treated with an appropriate final concentration of compound, for −GSH conditions or, for +GSH conditions, an intermediate plate containing 6× working concentrations of compound stocks was prepared in a 6 mM working concentration of GSH solution (solubilised in sterile PBS). Following a 30 minute compound-GSH pre-incubation (37° C./5% CO2) for +GSH treatment, plated U2OS cells were incubated with an appropriate final concentration of compound and GSH.
Following compound (+/−GSH) treatment, the U2OS plates were incubated for a further 6 hours (37° C./5% CO2) before detection reagent from the PathHunter NRF2 commercial kit was prepared and added to test plates according to the manufacturer's instructions. Subsequently, the luminescence signal detection was measured in a microplate reader (PHERAstar®, BMG Labtech).
Percentage activation was calculated by normalising the sample data to the high and low controls used within each plate (+/−DMF).

[3] = +GSH, 30 minute compound-GSH pre-incubation, read-out: NRF2 activation +GSH EC50
[4] = −GSH, U2OS PathHunter cells, 6 hours compound treatment, read-out: NRF2 activation −GSH EC50

SMILES: C=C(Cc1nc(-c2ccc(S(F)(F)(F)(F)F)cc2)no1)C(=O)O [Example 121, 2-((3-(4-(pentafluoro-λ^6-sulfaneyl)phenyl)-1,2,4-oxadiazol-5-yl)methyl)acrylic acid]
- IC50 [1]: 61.8 µM

SMILES: C=C(Cc1nc(Oc2ccc(CCCC)cc2)no1)C(=O)O [Example 126, 2-((3-(4-butylphenoxy)-1,2,4-oxadiazol-5-yl)methyl)acrylic acid]
- IC50 [1]: 32.1 µM

SMILES: C=C(Cc1nc(Cc2ccc(C(F)(F)F)c(Cl)c2)no1)C(=O)O [Example 137, 2-((3-(3-chloro-4-(trifluoromethyl)benzyl)-1,2,4-oxadiazol-5-yl)methyl)acrylic acid]
- IC50 [1]: 60.5 µM

SMILES: C=C(Cc1nc(Cc2cc(F)c(Cl)c(F)c2)no1)C(=O)O [Example 164, 2-((3-(4-chloro-3,5-difluorobenzyl)-1,2,4-oxadiazol-5-yl)methyl)acrylic acid]
- EC50 [2, 3]: 63.4 µM
- NRF2 activation +GSH Emax ([2]; +GSH): 5.5%
- EC50 [2, 4]: 42.7 µM
- NRF2 activation −GSH Emax ([2]; −GSH): 62%
- IC50 [1]: > 100 µM

SMILES: C=C(Cc1nc(C2(c3ccc(OC4CC4)cc3)CC2)no1)C(=O)O [Example 114]
- IC50 [1]: 55.2 µM

SMILES: C=C(Cc1nc(Cc2cccc(CCCC)c2)no1)C(=O)O [Example 29, 2-((3-(3-butylbenzyl)-1,2,4-oxadiazol-5-yl)methyl)acrylic acid]
- EC50 [2, 3]: 11.2 µM
- NRF2 activation +GSH Emax ([2]; +GSH): 183%
- EC50 [2, 4]: 7.6 µM
- NRF2 activation −GSH Emax ([2]; −GSH): 179%
- IC50 [1]: 22.8 µM

SMILES: C=C(Cc1nc(C2(c3ccc([S+]([O-])C(F)(F)F)cc3)CC2)no1)C(=O)O (stereo not drawn) [Example 157, 2-((3-(1-(4-((trifluoromethyl)sulfinyl)phenyl)cyclopropyl)-1,2,4-oxadiazol-5-yl)methyl)acrylic acid]
- EC50 [2, 3]: > 100 µM
- NRF2 activation +GSH Emax ([2]; +GSH): −5%
- EC50 [2, 4]: > 100 µM
- NRF2 activation −GSH Emax ([2]; −GSH): 41%
- IC50 [1]: > 100 µM

SMILES: C=C(Cc1nc(C2(c3ccc(S(=O)(=O)C(F)(F)F)cc3)CC2)no1)C(=O)O [Example 122, 2-((3-(1-(4-((trifluoromethyl)sulfonyl)phenyl)cyclopropyl)-1,2,4-oxadiazol-5-yl)methyl)acrylic acid]
- IC50 [1]: 75.5 µM

SMILES: C=C(Cc1ncn(CCCCCCCC)n1)C(=O)O [Example 13, 2-((1-octyl-1H-1,2,4-triazol-3-yl)methyl)acrylic acid]
- EC50 [2, 3]: 48.6 µM
- NRF2 activation +GSH Emax ([2]; +GSH): 51%
- EC50 [2, 4]: 43.1 µM
- NRF2 activation −GSH Emax ([2]; −GSH): 54%
- IC50 [1]: > 100 µM
- IL-1β lowering, result in words [1]: not effective

SMILES: C=C(Cc1nc(-c2ccc(OCCCC)c(Cl)c2)no1)C(=O)O [Example 160, 2-((3-(4-butoxy-3-chlorophenyl)-1,2,4-oxadiazol-5-yl)methyl)acrylic acid]
- EC50 [2, 3]: 4.1 µM
- NRF2 activation +GSH Emax ([2]; +GSH): 238%
- EC50 [2, 4]: 5 µM
- NRF2 activation −GSH Emax ([2]; −GSH): 216%
- IC50 [1]: > 10 µM

SMILES: C=C(Cc1nc(CCCC)c(CCCC)o1)C(=O)O [Example 123, 2-((4,5-dibutyloxazol-2-yl)methyl)acrylic acid]
- EC50 [2, 3]: 62.4 µM
- NRF2 activation +GSH Emax ([2]; +GSH): 42%
- EC50 [2, 4]: 6.6 µM
- NRF2 activation −GSH Emax ([2]; −GSH): 111%
- IC50 [1]: > 100 µM

SMILES: C=C(Cc1noc(C2(c3ccc(OC(F)(F)F)cc3)CC2)n1)C(=O)O [Example 99, 2-((5-(1-(4-(trifluoromethoxy)phenyl)cyclopropyl)-1,2,4-oxadiazol-3-yl)methyl)acrylic acid]
- IC50 [1]: 52.3 µM

SMILES: C=C(Cc1nc(-c2ccc(I)cc2)no1)C(=O)O [Example 119, 2-((3-(4-iodophenyl)-1,2,4-oxadiazol-5-yl)methyl)acrylic acid]
- IC50 [1]: 59.6 µM

SMILES: C=C(Cc1nc(-c2ccc(OCCCOC)cc2)no1)C(=O)O [Example 159, 2-((3-(4-(3-methoxypropoxy)phenyl)-1,2,4-oxadiazol-5-yl)methyl)acrylic acid]
- EC50 [2, 3]: 39.9 µM
- NRF2 activation +GSH Emax ([2]; +GSH): 85%
- EC50 [2, 4]: 34.4 µM
- NRF2 activation −GSH Emax ([2]; −GSH): 87%
- IC50 [1]: > 100 µM

SMILES: C=C(Cc1nc(C23CC4CC(CC(C4)C2)C3)no1)C(=O)O [Example 66, 2-((3-(adamantan-1-yl)-1,2,4-oxadiazol-5-yl)methyl)acrylic acid]
- EC50 [2, 3]: > 100 µM
- NRF2 activation +GSH Emax ([2]; +GSH): 14%
- EC50 [2, 4]: > 100 µM
- NRF2 activation −GSH Emax ([2]; −GSH): 23%
- IC50 [1]: > 100 µM
- IL-1β lowering, result in words [1]: not effective

SMILES: C=C(Cc1nc(C2(c3ccccc3Cl)CC2)no1)C(=O)O [Example 24, 2-((3-(1-(2-chlorophenyl)cyclopropyl)-1,2,4-oxadiazol-5-yl)methyl)acrylic acid]
- EC50 [2, 3]: > 100 µM
- NRF2 activation +GSH Emax ([2]; +GSH): 17%
- EC50 [2, 4]: 42.4 µM
- NRF2 activation −GSH Emax ([2]; −GSH): 57%
- IC50 [1]: > 100 µM
- IL-1β lowering, result in words [1]: not effective

SMILES: C=C(Cc1nc(Cc2ccc(C)c(Cl)c2)no1)C(=O)O [Example 165, 2-((3-(3-chloro-4-methylbenzyl)-1,2,4-oxadiazol-5-yl)methyl)acrylic acid]
- EC50 [2, 3]: > 100 µM
- NRF2 activation +GSH Emax ([2]; +GSH): 16%
- EC50 [2, 4]: > 100 µM
- NRF2 activation −GSH Emax ([2]; −GSH): 25%
- IC50 [1]: > 100 µM

SMILES: C=C(Cc1nc(CCCc2ccc(Cl)cc2)no1)C(=O)O [Example 33, 2-((3-(3-(4-chlorophenyl)propyl)-1,2,4-oxadiazol-5-yl)methyl)acrylic acid]
- EC50 [2, 3]: 23.3 µM
- NRF2 activation +GSH Emax ([2]; +GSH): 160%
- EC50 [2, 4]: 18.3 µM
- NRF2 activation −GSH Emax ([2]; −GSH): 150%
- IC50 [1]: 83.5 µM

SMILES: C=C(Cc1nc(C(F)(F)c2ccc(F)cc2)no1)C(=O)O [Example 125, 2-((3-(difluoro(4-fluorophenyl)methyl)-1,2,4-oxadiazol-5-yl)methyl)acrylic acid]
- EC50 [2, 3]: > 100 µM
- NRF2 activation +GSH Emax ([2]; +GSH): 26%
- EC50 [2, 4]: > 100 µM
- NRF2 activation −GSH Emax ([2]; −GSH): 37%
- IC50 [1]: > 100 µM

SMILES: C=C(Cc1nc(C(F)(F)c2ccc(OC)c(Cl)c2)no1)C(=O)O [Example 150, 2-((3-((3-chloro-4-methoxyphenyl)difluoromethyl)-1,2,4-oxadiazol-5-yl)methyl)acrylic acid]
- IC50 [1]: 52.7 µM

SMILES: C=C(Cc1nc(C2CCc3c(Cl)cc(Cl)cc32)no1)C(=O)O (stereo not drawn) [Example 148, 2-((3-(4,6-dichloro-2,3-dihydro-1H-inden-1-yl)-1,2,4-oxadiazol-5-yl)methyl)acrylic acid]
- IC50 [1]: 42.6 µM

SMILES: C=C(Cc1nc(-c2ccc(OCCC)cc2)no1)C(=O)O [Example 149, 2-((3-(4-propoxyphenyl)-1,2,4-oxadiazol-5-yl)methyl)acrylic acid]
- IC50 [1]: 50 µM

SMILES: C=C(Cc1nc(C(F)c2ccc(Cl)cc2)no1)C(=O)O (stereo not drawn) [Example 152, 2-((3-((4-chlorophenyl)fluoromethyl)-1,2,4-oxadiazol-5-yl)methyl)acrylic acid]
- IC50 [1]: 36.4 µM

SMILES: COC(=O)/C=C/C(=O)OC [dimethyl fumarate, reference compound]
- EC50 [2, 3]: > 100 µM
- NRF2 activation +GSH Emax ([2]; +GSH): 20%
- EC50 [2, 4]: 6.1 µM
- NRF2 activation −GSH Emax ([2]; −GSH): 100%

SMILES: C=C(Cc1nc(Cc2ccc(Br)c(Cl)c2)no1)C(=O)O [Example 139, 2-((3-(4-bromo-3-chlorobenzyl)-1,2,4-oxadiazol-5-yl)methyl)acrylic acid]
- IC50 [1]: 41.1 µM

SMILES: C=C(Cc1nc(-c2ccc(N3CCCC3)cc2)no1)C(=O)O [Example 132, 2-((3-(4-(pyrrolidin-1-yl)phenyl)-1,2,4-oxadiazol-5-yl)methyl)acrylic acid]
- IC50 [1]: 29.9 µM

SMILES: C=C(Cc1nc(-c2ccc(Br)cc2)no1)C(=O)O [Example 118, 2-((3-(4-bromophenyl)-1,2,4-oxadiazol-5-yl)methyl)acrylic acid]
- IC50 [1]: 59.6 µM
